Columns and labels:
[1] = tested on: peripheral blood mononuclear cells (PBMCs) from healthy donors; assay: Healthy donor PBMCs cultured with HDAC inhibitors, FACS; assay type: cell-based, human; conditions: for percentage of CD4+FOXP3+ Tregs within PBMCs: FIG. 1C
Excerpt: HDAC inhibition results in tumor growth arrest in immunocompetent animal models. The effects of class I and class II HDAC inhibition on leukocytes were investigated using peripheral blood mononuclear cells (PBMCs) obtained from healthy donors.

[2] = tested on: lung adenocarcinomas of KP mice; assay: Long-term efficacy study in KP mice; conditions: I.P. once daily, MRI, FIG. 6 and 8A
Experimental: Tumor growth was monitored weekly by MRI.
For lung tumor induction, mice received 1×10^6 cfu cre-encoding adenovirus intranasally at 5-6 weeks of age. Tumor formation (typically 6-8 weeks post inoculation) and volume was confirmed by MRI and was quantified using the 3D-slicer software. […] All mice were maintained under specific pathogen-free conditions.
JQ1 was formulated in 10% DMSO and 90% of 10% 2-hydroxylpropyl β-cyclodextrin (Sigma), and was administrated to mice at 25 mg/kg I.P. daily. Vehicle control was prepared by diluting DMSO into the related drug vehicle. […] Depletion of relevant cell types was confirmed by flow cytometry one day after the second dose using peripheral blood obtained from the tail vein.

[3] = tested on: lung adenocarcinomas of KP and TL mice; assay: 7-day treatment of KP and TL lung adenocarcinoma mice, tumor immune profiling; assay type: in vivo, mouse
Excerpt: Tumor-associated immune cells are important in shaping the course of tumor progression and anti-tumor immunity. The effects of an HDAC6 selective inhibitor on phenotypic and functional changes, especially in the context of tumor antigens, were investigated. Specifically, the effects of an HDAC6 selective inhibitor on immune cells infiltrating lung adenocarcinomas that spontaneously develop in fully immunocompetent genetically engineered mice harboring activating Kras^G12D mutation and concurrent p53 loss (designated as KP), or those with T790M/L858R EGFR mutations (designated TL) were studied. […] Single cell suspensions of lung tumor nodules were generated and subjected to FACS analysis to assess the proportions, phenotype and function of CD45+ immune cell subsets in the tumors isolated from both KP and TL mice.
Mice with existing adenocarcinomas were treated once daily with Compound A for seven days prior to evaluation of dissociated tumors by comprehensive multi-parameter flow cytometry. […] Such increases in the CD8:Treg ratios are often associated with enhanced anti-tumor response. […]
(§1) After incubation, cells were treated with red blood cell lysis buffer and were filtered through a 70 μm cell strainer. After centrifugation, cell pellet was re-suspended in 1×PBS/2% FBS. Cells were counted, and ˜0.5-1×10^6 cells were stained for surface markers in PBS+2% FBS for 15 minutes at 4° C. Intracellular staining was performed for Foxp3, Ki67, CTLA-4, and Bcl-2, using the Foxp3 staining buffer according to the manufacturer's instructions while the cytofix/cytoperm kit (BD Bioscience) was used for intracellular cytokine staining. Briefly, cells were stained for surface markers including CD4, CD8, CD3, followed by intracellular staining with PE-conjμgated anti-IFN-γ, BV421-conj μgated anti-TNF-α, APC-conjugated IL-2, FITC-conjugated Perforin and CD107a (where indicated), or isotype-matched mAbs after permeabilization and fixation. In all stained samples, dead cells were excluded using Live/Dead Fixable dead cell staining kit (Invitrogen). Cells were acquired on the LSR Fortessa (BD Biosciences) and were analyzed with the flowjo software (Treestar).
(§2) For intracellular cytokine detection assays, immune cells from tumors of treated or control mice were obtained after ficoll gradient separation as previously described. 1×10^6 cells were cultured with PMA (50 ng) and Ionomycin (500 ng) for 6 hours at 37° C., and GolgiPlμg (BD Pharmingen) was added for the last 5 hours of culture. For equivalent assays utilizing human PBMCs, 0.5×10^6 cells were similarly stimulated prior to analysis.
Tumor-associated macrophages (TAMs; CD45+CD11c+CD11b^lo) and CD45+CD3+CD25^lo/− T cells were sorted into 96-well plates containing 50 μl of 1×PBS with Recombinant Ribonuclease Inhibitor (Life Technologies) isolated from tumor tissues by FACS sorting. Briefly, tumor cell suspensions were incubated with live/dead fixable dye after FcγR blocking and subsequently stained with antibodies against CD45, CD3, CD8, CD11b, and CD11c. Smart-Seq2 libraries were prepared by the Broad Technology Labs and sequenced by the Broad Genomics Platform.

[4] = tested on: PBMCs obtained from non-small cell lung cancer (NSCLC) patients; assay: NSCLC patient PBMCs cultured with Compound A or entinostat, FACS; conditions: for expression of CD86 on CD14+ monocytes / expression of MHC class II molecules on CD14+ monocytes: 24-hour culture, FIG. 4A; for expression of CD69 activation marker on conventional CD8+ and CD4+ T cells: patient PBMC cultures, FIG. 3A, 3B
Excerpt: Specifically, the phenotype of CD14+CD11b+ monocytes in the peripheral blood of healthy subjects and NSCLC patients, or that of CD14-CD68+CD11b+ macrophages within disaggregated NSCLC tumors were investigated. […] Peripheral blood mononuclear cells (PBMCs) were isolated by Ficoll gradient from fresh or frozen blood samples obtained from healthy donors and consented patients under IRB-approved institutional protocols. […] Cells were then washed and were subjected to phenotypic analysis by FACS. In some experiments, these cultures were performed with purified CD14+ monocytes or CD3+ T cells after purifications from whole PBMCs.

[5] = tested on: CD14+ monocytes from patient PBMCs / allogeneic T cells; assay: Mixed lymphocyte reaction with drug-exposed CD14+ monocytes; conditions: monocytes cultured 24 hours with drug, 6 days co-culture, FIG. 4D
Excerpt: For T cell proliferation assays, T cells were isolated from PBMCs by positive selection using T cell enrichment kit (Miltenyi Biotec) following the manufacturer's instructions. Cells were typically ˜90% pure. […] Cells were washed three times with RPMI+10% FBS, were counted, and were used as responder cells.

[6] = tested on: single cell suspensions from dissociated freshly resected NSCLC tumors; assay: Dissociated NSCLC patient tumor cell cultures, FACS; assay type: cell-based, human; conditions: 2-D tumor cell cultures, FIG. 4B
Excerpt: DMSO was used as a control.

[7] = current clinical trials of hematologic cancers; cited from earlier work
[8] = tested on: lung adenocarcinomas of KP mice; assay: Immune profiling of KP tumor nodules after 4-6 weeks of treatment; assay type: in vivo, mouse
Experimental: For immune profiling, cohorts of mice were sacrificed after 4-6 weeks of treatment and tumor cell suspensions were subjected to FACS analysis. […] In addition, immune cells isolated from tumors of mice treated with indicated drugs were stimulated ex-vivo for 6 hours in the presence of golgi plug. […] Equivalent numbers of each of these populations were co-cultured for two days in the presence of tumor cell lysate.
as §1, §2

[9] = tested on: CD3+CD4+CD25hi Treg cells from spleen of wild-type mice; assay: Mouse splenic T cells and Tregs cultured with JQ1; assay type: cell-based
Excerpt: A combination treatment with an HDAC6 selective inhibitor and a complementary immunomodulatory agent can achieve greater levels of immune-based control of tumor growth in these NSCLC models. JQ1 was previously shown to have an anti-tumor effect in KP mice in part due to downregulation of MYC and induction of apoptosis in tumor cells. […] T cells were isolated from the spleen of wild-type mice and sorted into CD3+CD25− (T cells) or CD3+CD4+CD25hi (Treg) subsets and subsequently cultured in the presence or absence of JQ1 (1 μM). Cultures were supplemented with 100 IU/mL of recombinant IL-2. Cells were washed after two days of culture and their phenotype was evaluated by FACS. For the CSFE dilution shown in FIG. 7C, 2×10^5 CFSE-labelled purified T cells obtained from the spleen of naïve mice were co-cultured with 1.0×10^5 mitomycin C treated, T-depleted spleen cells which served as APCs. 0.5 μg of soluble anti-CD3 was then added to each well along with graded numbers of Tregs (indicated by Treg:T cell ratios).

[10] = PBMCs from healthy donors, FIG. 4C
[11] = KP and TL mice, 7 days, FIG. 5K-5M
[12] = KP and TL mice, once daily for seven days, FIG. 5A-5B
[13] = JQ1 1 μM, two days of culture, FIG. 7B

**Q.** Which “percentage of CD4+FOXP3+ Tregs within PBMCs” value (from here on “percentage”) ([1]; healthy donor PBMCs, 24 hours) does the source give for `O=C(NO)c1cnc(NC2(c3cccc(F)c3)CCCCC2)nc1` [Compound C, 2-((1-(3-fluorophenyl)cyclohexyl)amino)-N-hydroxypyrimidine-5-carboxamide] here?
**A.** did not significantly impact

**Q.** With `O=C(CCCCCCNC(=O)c1cnc(N(c2ccccc2)c2ccccc2)nc1)NO` [Compound A, 2-(diphenylamino)-N-(7-(hydroxyamino)-7-oxoheptyl)pyrimidine-5-carboxamide] as the molecule, how does the “expression of CD86 on monocytes” value [1, 10] read?
**A.** increased expression

**Q.** What about the “expression of MHC class II on monocytes” value [1, 10] of the same molecule?
**A.** increased expression

**Q.** And the “expression of CD69 activation marker on conventional CD8+ and CD4+ T cells” value (shortened to “expression of CD69 activation marker”) ([1]; healthy donor PBMC cultures, 24 hours, FIG. 3C, 3D)?
**A.** substantially up-regulated

**Q.** And the “percentage” value ([1]; healthy donor PBMCs, 24 hours)?
**A.** reduced most significantly

**Q.** What about the “phospho-STAT3 expression on T cells” value ([1]; healthy donor PBMCs, FIG. 3E) of the same molecule?
**A.** increase

**Q.** And the tumor growth [2]?
**A.** marginal delay

**Q.** What about the “expression levels of CD86 on CD11c+CD11b lo tumor-associated macrophages” value [3, 11] of the same molecule?
**A.** significantly elevated expression levels

**Q.** And the “expression levels of MHC class II on CD11c+CD11b lo tumor-associated macrophages” value [3, 11]?
**A.** significantly elevated expression levels

**Q.** And the “CD4+Foxp3+ Treg cells among lymphoid cells” value [3, 12]?
**A.** significant decreases

**Q.** What about the “frequency of tumor-infiltrating CD8+ T cells” value [3, 12] of the same molecule?
**A.** modest increases

**Q.** What about the “genes associated with T cell activation and effector function (Cd69, Sell, Cd44, Prf1) in tumor-infiltrating T cells” value ([3]; KP mice, single cell RNA-Seq, vs vehicle, FIG. 5N) of the same molecule?
**A.** up-regulated

**Q.** And the “inhibitory receptor molecule expression on tumor-infiltrating T cells” value ([3]; PD-1, CTLA-4, TIM3, seven days, FIG. 5D-5G)?
**A.** no substantial phenotypic changes

**Q.** What about the “secretion of IFN-γ and TNF-α by tumor-infiltrating CD8+ T cells” value ([3]; ex-vivo stimulation, vs vehicle, FIG. 5H) of the same molecule?
**A.** enhanced capacity to secrete

**Q.** What about the “CD69 activation marker on tumor-infiltrating CD8+ T cells” value ([3]; seven days treatment, vs vehicle, FIG. 5H) of the same molecule?
**A.** increased expression levels

**Q.** What about the “expression of genes associated with MHC class II (Cd74, H2-Aa) in TAMs” value ([3]; single cell RNA-Sequencing, vs control mice, FIG. 5N) of the same molecule?
**A.** higher expression

**Q.** What about the “expression of CD86 on CD14+ monocytes” value [4] of the same molecule?
**A.** up-regulated

**Q.** What about the “expression of MHC class II molecules on CD14+ monocytes” value [4] of the same molecule?
**A.** up-regulated

**Q.** What about the “expression of CD69 activation marker” value [4] of the same molecule?
**A.** substantially up-regulated

**Q.** What about the “induction of allogeneic T cell proliferative responses by exposed CD14+ monocytes” value [5] of the same molecule?
**A.** superior

**Q.** And the “expression of CD86 on CD14-CD68+CD11b+ macrophages” value [6]?
**A.** increased expression

**Q.** What about the “expression of MHC class II on CD14-CD68+CD11b+ macrophages” value [6] of the same molecule?
**A.** increased expression

**Q.** And the safety profile [7]?
**A.** favorable safety profile

**Q.** And the “MHC class II molecules on TAMs” value ([8]; FIG. 9G)?
**A.** markedly promoted the up-regulation

**Q.** And the “CD86 on TAMs” value ([8]; FIG. 9H)?
**A.** markedly promoted the up-regulation

**Q.** With `O=C(CCCCCCNC(=O)c1cnc(N(c2ccccc2)c2ccccc2Cl)nc1)NO` [Compound B, 2-((2-chlorophenyl)(phenyl)amino)-N-(7-(hydroxyamino)-7-oxoheptyl)pyrimidine-5-carboxamide] as the molecule, how does the “percentage” value ([1]; healthy donor PBMCs, 24 hours) read?
**A.** reduced most significantly

**Q.** And the “activation of CD8 T cells (CD69 activation marker)” value ([3]; KP mice, 7 days, FIG. 5I)?
**A.** increased activation

**Q.** And the “expression of MHCII on tumor associated macrophages” value ([3]; KP mice, 7 days, FIG. 5I)?
**A.** increased expression

**Q.** With `Cc1sc2c(c1C)C(c1ccc(Cl)cc1)=NC(CC(=O)OC(C)(C)C)c1nnc(C)n1-2` (stereo not drawn) [JQ1] as the molecule, how does the tumor growth [2] read?
**A.** moderate

**Q.** And the “suppressive function of Tregs vs unexposed counterparts” value ([9]; CFSE dilution, FIG. 7C)?
**A.** less suppressive

**Q.** And the “expression levels of Foxp3 on Tregs” value [9, 13]?
**A.** diminished expression levels

**Q.** And the “expression levels of PD-1 on Tregs” value [9, 13]?
**A.** diminished expression levels

**Q.** And the “Treg fractions/proportions in tumors” value ([8]; 4-6 weeks, FIG. 9B)?
**A.** more substantial reduction

**Q.** With `CN1CCc2c(c3ccccc3n2Cc2ccc(C(=O)NO)cc2)C1` [Tubastatin, Tubastatin A, reference compound] as the molecule, how does the “percentage” value ([1]; healthy donor PBMCs, 24 hours) read?
**A.** did not significantly impact

**Q.** With `O=C(NO)c1cnc(NC2(c3ccccc3)CC2)nc1` [Compound D, N-hydroxy-2-((1-phenylcyclopropyl)amino)pyrimidine-5-carboxamide] as the molecule, how does the “percentage” value ([1]; healthy donor PBMCs, 24 hours) read?
**A.** effect was still present

**Q.** With `Nc1ccccc1NC(=O)c1ccc(CNC(=O)OCc2cccnc2)cc1` [Entinostat, entinostat, reference compound] as the molecule, how does the “percentage” value ([1]; healthy donor PBMCs, 24 hours) read?
**A.** effect was still present

**Q.** And the “expression of CD86 on CD14+ monocytes” value [4]?
**A.** neither addition of DMSO nor entinostat up-regulated

**Q.** And the “expression of MHC class II molecules on CD14+ monocytes” value [4]?
**A.** neither addition of DMSO nor entinostat up-regulated

**Q.** And the “expression of CD69 activation marker” value [4]?
**A.** not

— patent US11298354B2, “Methods of use and pharmaceutical combinations of HDAC inhibitors with BET inhibitors” (DANA-FARBER CANCER INSTITUTE, INC., priority 2016, dated 2022)
